Legend:
Assay type in all cases: cell-based
[1] = target: hROMK (human Kir1.1) (Homo sapiens (Human), UniProt P48048); experiment: Thallium Flux Assay (FluxOR, CHO T-Rex hROMK stable cell line); conditions: CHO T-Rex hROMK cells, 10-point concentration response curve; read-out: Human ROMK TH Flux IC50
[2] = target: hROMK (Homo sapiens (Human), UniProt P48048); experiment: ROMK Manual Patch Clamp Assay; conditions: whole-cell manual patch clamp, hROMK current; read-out: ROMK EP IC50
Method: Cell culture conditions: Cells were maintained in conditions similar to those for Thallium flux assay. hROMK channel expression was induced by adding 0.6 μg/ml of Doxycycline 16-24 hrs prior to the experiments. On the day of experiment, the cells were dissociated using Versene, resuspended in growth media and plated onto coverslips 15 minutes prior to use.
The cells were voltage clamped at −75 mV in whole-cell configuration using an Axopatch 200b or Multiclamp 700b (Molecular Devices) amplifier controlled by pClamp Software (Molecular Devices). The current was recorded by applying a voltage step to −120 mV every 10 seconds. […] At the end of the experiment, the cells were perfused with bath solution containing 2 mM Ba^2+ to isolate the contribution of hROMK current.
Data analysis: Raw current values (5 traces each for control, different compound concentration and Ba^2+ treatment groups) were exported from Clampfit into Microsoft Excel where the current remaining after application of Ba^2+ was subtracted from raw current to obtain hROMK specific current.

[3] = target: hERG channels (Homo sapiens (Human), UniProt Q12809); experiment: hERG Manual Patch Clamp Assay (HEK 293 cells stably expressing hERG channels); conditions: for inhibition at 1 µM: human, HEK 293 cells stably expressing hERG channels, pH 7.4
Chain of hERG channels (Q12809 whole entry): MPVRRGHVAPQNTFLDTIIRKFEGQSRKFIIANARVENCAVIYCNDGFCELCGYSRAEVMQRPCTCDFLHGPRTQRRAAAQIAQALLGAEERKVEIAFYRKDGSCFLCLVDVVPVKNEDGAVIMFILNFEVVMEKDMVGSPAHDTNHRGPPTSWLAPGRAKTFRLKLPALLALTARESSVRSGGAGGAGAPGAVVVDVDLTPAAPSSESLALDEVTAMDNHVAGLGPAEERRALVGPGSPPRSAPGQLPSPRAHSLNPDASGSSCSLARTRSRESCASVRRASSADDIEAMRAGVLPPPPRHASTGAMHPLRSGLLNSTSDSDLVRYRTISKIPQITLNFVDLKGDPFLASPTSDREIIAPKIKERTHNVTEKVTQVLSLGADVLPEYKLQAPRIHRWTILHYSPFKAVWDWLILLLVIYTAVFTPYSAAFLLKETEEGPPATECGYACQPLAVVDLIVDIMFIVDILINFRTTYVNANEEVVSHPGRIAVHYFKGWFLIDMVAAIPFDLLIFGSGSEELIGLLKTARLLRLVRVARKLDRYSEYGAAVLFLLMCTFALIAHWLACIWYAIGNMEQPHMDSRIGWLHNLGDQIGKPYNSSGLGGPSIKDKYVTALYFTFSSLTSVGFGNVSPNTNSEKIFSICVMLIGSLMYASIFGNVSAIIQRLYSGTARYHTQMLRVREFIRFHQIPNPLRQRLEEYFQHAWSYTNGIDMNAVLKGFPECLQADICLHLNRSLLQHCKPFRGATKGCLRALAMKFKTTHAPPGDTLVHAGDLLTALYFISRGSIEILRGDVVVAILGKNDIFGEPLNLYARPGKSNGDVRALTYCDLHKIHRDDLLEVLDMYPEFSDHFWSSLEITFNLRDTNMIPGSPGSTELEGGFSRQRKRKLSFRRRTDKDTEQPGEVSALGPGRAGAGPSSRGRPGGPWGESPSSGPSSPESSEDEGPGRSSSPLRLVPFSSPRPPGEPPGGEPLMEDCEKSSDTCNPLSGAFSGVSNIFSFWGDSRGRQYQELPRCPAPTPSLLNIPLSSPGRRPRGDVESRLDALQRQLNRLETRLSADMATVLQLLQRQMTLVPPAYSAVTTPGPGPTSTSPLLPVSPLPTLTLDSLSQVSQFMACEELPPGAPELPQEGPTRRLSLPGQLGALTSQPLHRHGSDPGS

Chain of hROMK (P48048 whole entry): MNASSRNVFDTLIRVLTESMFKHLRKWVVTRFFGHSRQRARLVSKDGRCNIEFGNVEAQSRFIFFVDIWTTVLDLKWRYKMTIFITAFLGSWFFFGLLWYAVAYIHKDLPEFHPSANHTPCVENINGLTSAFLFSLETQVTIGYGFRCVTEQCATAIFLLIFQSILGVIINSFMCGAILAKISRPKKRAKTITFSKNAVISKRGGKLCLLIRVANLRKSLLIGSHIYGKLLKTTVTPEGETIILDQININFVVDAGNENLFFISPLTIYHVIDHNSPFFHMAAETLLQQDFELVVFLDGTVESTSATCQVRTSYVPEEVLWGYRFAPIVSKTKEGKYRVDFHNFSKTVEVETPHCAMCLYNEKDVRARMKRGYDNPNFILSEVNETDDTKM
Chain of hROMK (human Kir1.1) (P48048 whole entry): as above

Compound: Cc1c(C(O)CNCc2ccc(-c3ccc4oc(=O)n(C)c4c3)nc2)ccc2c1COC2=O (single isomer, unassigned) [Example 23-I, 5-(5-(((2-hydroxy-2-(4-methyl-1-oxo-1,3-dihydroisobenzofuran-5-yl)ethyl)amino)methyl)pyridin-2-yl)-3-methylbenzo[d]oxazol-2(3H)-one]
- IC50 [1]: 160 nM
- IC50 [2]: 15 nM
- inhibition at 1 µM [3]: 13%

Compound: Cc1c(C(O)CN(C)Cc2ccc(-c3ccc(C#N)c(F)c3)cc2)ccc2c1COC2=O (single isomer, unassigned) [Example 27-I, 3-fluoro-4′-(((2-hydroxy-2-(4-methyl-1-oxo-1,3-dihydroisobenzofuran-5-yl)ethyl)(methyl)amino)methyl)-[1,1′-biphenyl]-4-carbonitrile]
- IC50 [1]: 40 nM
- IC50 [2]: 6.8 nM
- inhibition at 1 µM [3]: 95%

Compound: Cc1cc(-n2cc(CNCC(O)c3ccc4c(c3C3CC3)COC4=O)cn2)ncc1C#N (single isomer, unassigned) [Example 46-I, 6-(4-(((2-(4-cyclopropyl-1-oxo-1,3-dihydroisobenzofuran-5-yl)2-hydroxyethyl)amino)meth-yl)-1H-pyrazol-1-yl)-4-methylnicotinonitrile]
- IC50 [1]: 33 nM
- IC50 [2]: 17 nM

Compound: Cc1nc(-n2cc(CNC[C@H](O)c3ccc4c(c3C)COC4=O)cn2)ncc1C#N (single isomer, unassigned) [Example 50]
- IC50 [1]: 45 nM
- IC50 [2]: 49 nM
- inhibition at 1 µM [3]: 8.5%

Compound: COc1cc(-n2cc(CNC(C)C(O)c3ccc4c(c3C)COC4=O)nn2)ncc1C#N (single isomer, unassigned) [Example 91-I, 6-(4-(((1-hydroxy-1-(4-methyl-1-oxo-1,3-dihydroisobenzofuran-5-yl)propan-2-yl)amino)methyl)-1H-1,2,3-triazol-1-yl)-4-methoxynicotinonitrile]
- IC50 [1]: 21 nM
- IC50 [2]: 11 nM
- inhibition at 1 µM [3]: 19%

Compound: Cc1c(C(O)CN(C)Cc2ccc(-c3ccc4oc(=O)n(C)c4c3)nc2)ccc2c1COC2=O (centres unmarked) [Example 1-I, 5-(5-(((2-hydroxy-2-(4-methyl-1-oxo-1,3-dihydroisobenzofuran-5-yl)ethyl)(methyl)amino)methyl)pyridin-2-yl)-3-methylbenzo[d]oxazol-2(3H)-one]
- IC50 [1]: 170 nM
- IC50 [2]: 19 nM
- inhibition at 1 µM [3]: 8.7%

Compound: CN(Cc1ccc(-c2ccc3oc(=O)n(C)c3c2)nc1)C[C@H](O)c1ccc2oc(=O)n(C)c2c1 [Example 6-I]
- IC50 [2]: 11 nM
- hERG EP IC50 (% Inh @1 uM) ([3]; % inhibition of hERG current at 1 uM, manual patch clamp, HEK 293 cells): 26%

Compound: Cc1c([C@@H](O)CNCc2cccc(-c3ccc4oc(=O)n(C)c4c3)n2)ccc2c1COC2=O [Example 133, (R)-5-(6-(((2-hydroxy-2-(4-methyl-1-oxo-1,3-dihydroisobenzofuran-5-yl)ethyl)amino)methyl)pyridin-2-yl)-3-methylbenzo[d]oxazol-2(3H)-one]
- IC50 [1]: 900 nM
- inhibition at 1 µM [3]: 59%

Compound: COc1cc(-c2ncc(CNC[C@H](O)c3ccc4c(c3C)COC4=O)cn2)ncc1C#N [Example 134, (R)-6-(5-(((2-hydroxy-2-(4-methyl-1-oxo-1,3-dihydroisobenzofuran-5-yl)ethyl)amino)methyl)pyrimidin-2-yl)-4-methoxynicotinonitrile]
- IC50 [1]: 77 nM
- inhibition at 1 µM [3]: 3.8%

Compound: CCN(Cc1ccc(-c2ccc3oc(=O)n(C)c3c2)nc1)C[C@H](O)c1ccc2c(c1C)COC2=O [Example 135, (R)-5-(5-((ethyl(2-hydroxy-2-(4-methyl-1-oxo-1,3-dihydroisobenzofuran-5-yl)ethyl)amino)methyl)pyridin-2-yl)-3-methylbenzo[d]oxazol-2(3H)-one]
- IC50 [1]: 67 nM
- inhibition at 1 µM [3]: 51%

Compound: CNc1cc(-n2cc(CNC[C@H](O)c3ccc4c(c3C)COC4=O)cn2)ncc1C#N [Example 146, (R)-6-(4-(((2-hydroxy-2-(4-methyl-1-oxo-1,3-dihydroisobenzofuran-5-yl)ethyl)amino)methyl)-1H-pyrazol-1-yl)-4-(methylamino)nicotinonitrile]
- IC50 [1]: 25 nM
- inhibition at 1 µM [3]: 61%

Compound: CO[C@@H](CNCc1cnn(-c2cc(C)c(C#N)cn2)c1)c1ccc2c(c1C)COC2=O [Example 147, (R)-6-(4-(((2-methoxy-2-(4-methyl-1-oxo-1,3-dihydroisobenzofuran-5-yl)ethyl)amino)methyl)-1H-pyrazol-1-yl)-4-methylnicotinonitrile]
- IC50 [1]: 37 nM
- inhibition at 1 µM [3]: 28%

Compound: Cc1c([C@@H](O)CNCc2cnn(-c3cc(C4CC4)c(C#N)cn3)c2)ccc2c1COC2=O [Example 148, (R)-4-cyclopropyl-6-(4-(((2-hydroxy-2-(4-methyl-1-oxo-1,3-dihydroisobenzofuran-5-yl)ethyl)amino)methyl)-1H-pyrazol-1-yl)nicotinonitrile]
- IC50 [1]: 200 nM
- inhibition at 1 µM [3]: 72%

Compound: Cc1c([C@@H](O)CNCc2cn(-c3ccc4oc(=O)n(C)c4c3C)cn2)ccc2c1COC2=O [Example 149, (R)-5-(4-(((2-hydroxy-2-(4-methyl-1-oxo-1,3-dihydroisobenzofuran-5-yl)ethyl)amino)methyl)-1H-imidazol-1-yl)-3,4-dimethylbenzo[d]oxazol-2(3H)-one]
- IC50 [1]: 84 nM
- inhibition at 1 µM [3]: 8.6%

Compound: COc1cc(-n2cc(CNC[C@H](O)c3ccc4c(c3OC)COC4=O)cn2)ncc1C#N [Example 150, (R)-6-(4-(((2-hydroxy-2-(4-methoxy-1-oxo-1,3-dihydroisobenzofuran-5-yl)ethyl)amino)methyl)-1H-pyrazol-1-yl)-4-methoxynicotinonitrile]
- IC50 [1]: 56 nM
- inhibition at 1 µM [3]: 55%

Compound: Cc1c([C@@H](O)CNCc2ccc(-n3ccc(C#N)n3)nc2)ccc2c1COC2=O [Example 151, (R)-1-(5-(((2-hydroxy-2-(4-methyl-1-oxo-1,3-dihydroisobenzofuran-5-yl)ethyl)amino)methyl)pyridin-2-yl)-1H-pyrazole-3-carbonitrile]
- IC50 [1]: 29 nM
- inhibition at 1 µM [3]: 45%

Compound: CCOc1cc(-n2cc(CNC[C@H](O)c3ccc4c(c3C)COC4=O)cn2)ncc1C#N [Example 152, (R)-4-ethoxy-6-(4-(((2-hydroxy-2-(4-methyl-1-oxo-1,3-dihydroisobenzofuran-5-yl)ethyl)amino)methyl)-1H-pyrazol-1-yl)nicotinonitrile]
- IC50 [1]: 6.2 nM
- inhibition at 1 µM [3]: 64%

Compound: CCOc1cc(-n2ncc(CNC[C@H](O)c3ccc4c(c3C)COC4=O)n2)ncc1C#N [Example 155, (R)-4-ethoxy-6-(4-(((2-hydroxy-2-(4-methyl-1-oxo-1,3-dihydroisobenzofuran-5-yl)ethyl)amino)methyl)-2H-1,2,3-triazol-2-yl)nicotinonitrile]
- IC50 [1]: 31 nM
- inhibition at 1 µM [3]: 20%

Compound: CCOc1cc(-n2cc(CNC[C@H](O)c3ccc4c(c3C)COC4=O)nn2)ncc1C#N [Example 156, (R)-4-ethoxy-6-(4-(((2-hydroxy-2-(4-methyl-1-oxo-1,3-dihydroisobenzofuran-5-yl)ethyl)amino)methyl)-1H-1,2,3-triazol-1-yl)nicotinonitrile]
- IC50 [1]: 9.7 nM
- inhibition at 1 µM [3]: 15%

Compound: Cc1cc(-n2cc(CNC[C@H](O)c3ccc4c(c3C)COC4=O)n(C)c2=O)ncc1C#N [Example 159, (R)-6-(4-(((2-hydroxy-2-(4-methyl-1-oxo-1,3-dihydroisobenzofuran-5-yl)ethyl)amino)methyl)-3-methyl-2-oxo-2,3-dihydro-1H-imidazol-1-yl)-4-methylnicotinonitrile]
- IC50 [1]: 93 nM
- inhibition at 1 µM [3]: 6.5%

Compound: Cc1c([C@@H](O)CNCc2cnn(-c3ccc(C#N)cc3)c2)ccc2c1COC2=O [Example 160, (R)-4-(4-(((2-hydroxy-2-(4-methyl-1-oxo-1,3-dihydroisobenzofuran-5-yl)ethyl)amino)methyl)-1H-pyrazol-1-yl)benzonitrile]
- IC50 [1]: 24 nM
- inhibition at 1 µM [3]: 89%

Compound: Cc1c([C@@H](O)CNCc2cnn(-c3cccc(C#N)c3)c2)ccc2c1COC2=O [Example 161, (R)-3-(4-(((2-hydroxy-2-(4-methyl-1-oxo-1,3-dihydroisobenzofuran-5-yl)ethyl)amino)methyl)-1H-pyrazol-1-yl)benzonitrile]
- IC50 [1]: 77 nM
- inhibition at 1 µM [3]: 48%

Compound: Cc1c([C@@H](O)CN(Cc2ccc(-c3ccc4oc(=O)n(C)c4c3)nc2)CC2CC2)ccc2c1COC2=O [Example 162, (R)-5-(5-(((cyclopropylmethyl)(2-hydroxy-2-(4-methyl-1-oxo-1,3-dihydroisobenzofuran-5-yl)ethyl)amino)methyl)pyridin-2-yl)-3-methylbenzo[d]oxazol-2(3H)-one]
- IC50 [1]: 110 nM
- inhibition at 1 µM [3]: 44%

Compound: Cc1cc(-n2cc(CNC[C@H](F)c3ccc4c(c3C)COC4=O)cn2)ncc1C#N [Example 167, (R)-6-(4-(((2-fluoro-2-(4-methyl-1-oxo-1,3-dihydroisobenzofuran-5-yl)ethyl)amino)methyl)-1H-pyrazol-1-yl)-4-methylnicotinonitrile]
- IC50 [1]: 68 nM
- inhibition at 1 µM [3]: 41%

Compound: Cc1cc(-n2cc(CNC[C@H](O)c3ccc4c(c3C)COC4=O)c3cccnc32)ncc1C#N [Example 169, (R)-6-(3-(((2-hydroxy-2-(4-methyl-1-oxo-1,3-dihydroisobenzofuran-5-yl)ethyl)amino)methyl)-1H-pyrrolo[2,3-b]pyridin-1-yl)-4-methylnicotinonitrile]
- IC50 [1]: 59 nM
- inhibition at 1 µM [3]: 79%

Compound: COc1cc(-n2cc(CNC[C@H](O)c3ccc4c(c3C)COC4=O)cn2)ncc1C#N [Example 173, (R)-6-(4-(((2-hydroxy-2-(4-methyl-1-oxo-1,3-dihydroisobenzofuran-5-yl)ethyl)amino)methyl)-1H-pyrazol-1-yl)-4-methoxynicotinonitrile]
- IC50 [1]: 2.4 nM
- inhibition at 1 µM [3]: 77%

Compound: Cc1c([C@@H](O)CNCc2ccc(-n3cc(C#N)c(OC(F)F)n3)nc2)ccc2c1COC2=O [Example 175, (R)-3-(difluoromethoxy)-1-(5-(((2-hydroxy-2-(4-methyl-1-oxo-1,3-dihydroisobenzofuran-5-yl)ethyl)amino)methyl)pyridin-2-yl)-1H-pyrazole-4-carbonitrile]
- IC50 [1]: 3.6 nM
- inhibition at 1 µM [3]: 86%

Reference: US10723723B2, “Substituted bicycle heterocyclic derivatives useful as ROMK channel inhibitors” (BRISTOL-MYERS SQUIBB COMPANY, priority 2016, dated 2020)
